Reference: article PMC8067766 (International Journal of Molecular Sciences, 2021)
Where a SMILES comes first, the peptide text is derived from it.

Tests used:
[1] = Thioflavin T fluorescence assay; type: physicochemical; details: 1.0 mg/mL in PBS pH 7.4, 37 °C, orbital shaking; ThT excitation 420 nm, emission 482 nm
Protocol: All peptides were dissolved in Eppendorf Low Retention Tubes in 1.0 mL of PBS pH 7.4. The concentration of the solutions of peptides was 1.0 mg/mL. The peptides were incubated at 37 °C with constant orbital shaking. Aliquots for the evaluation of the fibrillization process were taken before incubation and after 1, 2, 3, 6, 14, and 21 days or only after 7 days, depending on the experiments.
Ten microliters of peptide solution incubated under fibrillization conditions (see Fibril preparation) were mixed with 10 µL of 1.5 mM ThT in water and 90 µL of PBS pH 7.4. The fluorescence was measured on a Tecan Infinite 200Pro (Tecan Group Ltd., Männedorf, Switzerland) spectrofluorometer in 96-well plates (Costar Black®), with excitation wavelength set at 420 nm and emission in the range of 455 to 600 nm.

[2] = Circular dichroism over incubation; type: physicochemical; details: 1.0 mg/mL in PBS pH 7.4, 37 °C with agitation, up to 14 days; centrifuged clear solution, far-UV 195-250 nm
Protocol: Circular dichroism spectra were recorded on a Jasco J-815 spectropolarimeter (Jasco, Victoria, BC, Canada). Far-UV spectra (195–250 nm) were registered for all peptides dissolved in PBS pH 7.4 at a concentration of 1.0 mg/mL and incubated at 37 °C with agitation. Spectra were recorded before and after 1,2, 3, 7, 10 and 14 days of incubation. All spectra were corrected for the buffer signal. The CD spectra were recorded three times, using a 0.2 mm cell.

[3] = target: T1, human neutrophil elastase (Homo sapiens, UniProt P08246); assay: Incubation with neutrophil elastase (release of active sequence); type: in vitro ADME; details: non-fibrillated peptide 1.0 mM, 0.1 M Tris HCl, 500 mM NaCl, 0.05% Triton X-100, 20 mM CaCl2, pH 7.5; enzyme 150 nM; 30 min, 37 °C; RP-UHPLC (PDA) and LC-MS
T1 construct: purchased Sigma Aldrich
T1 sequence (P08246 30-267): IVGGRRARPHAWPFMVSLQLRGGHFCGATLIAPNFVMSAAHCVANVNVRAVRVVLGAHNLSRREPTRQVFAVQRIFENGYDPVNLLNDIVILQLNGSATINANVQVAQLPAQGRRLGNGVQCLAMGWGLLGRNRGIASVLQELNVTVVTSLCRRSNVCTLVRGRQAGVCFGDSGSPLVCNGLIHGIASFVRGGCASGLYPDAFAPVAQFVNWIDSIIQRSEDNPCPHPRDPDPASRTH
Protocol: An enzymatic stability study was performed using the human neutrophil elastase enzyme (Sigma Aldrich, St. Louis, MO, USA). The peptides were dissolved in a buffer (with composition: 0.1 M Tris HCl, 500 mM NaCl, 0.05% Triton X-100, 20 mM CaCl2, pH 7.5), to a final concentration 1.0 mM. The fibrils formed in the aggregation process were dissolved in PBS at pH 7.4 to a concentration of 1 mg/mL. The enzyme was added to the peptide/fibril solution to a concentration of 150 nM and incubated for 30 min (peptides) or 60 min (fibrils), at 37 °C, with agitation. A 10% aqueous TFA solution was added to the reaction mixture to stop the digestion. The progress of the reaction was monitored by RP-UHPLC with a PDA (Photo Diode Array) detector on a Kinetex C8 column (2.6 μm, 100 Å 2.6 × 100 mm, Phenomenex, Torrance, CA, USA), at a gradient of 0–50% B for 15 min, and by LC-MS.

[4] = Peptide stability in human plasma (TCA assay); type: in vitro ADME; details: human plasma (EDTA), 37 °C, 300 rpm, TCA 3% precipitation, RP-HPLC UV 223 nm, peak area relative to 0 min, at least triplicates, read-out: peptide loss in human plasma relative to the initial concentration
Protocol: Peptide stability tests were performed according to a TCA stability assay based on the method used by Nguyen et al.. Peptides were dissolved in water, mixed with human plasma* to a final concentration of 1.0 mg/mL, and incubated at 37 °C with agitation (300 rpm, Thermomixer, Eppendorf AG, Hamburg, Germany). After 0, 1, 2, 3, 6 and 24 h, 80 μL of the solution was taken and mixed with 15% TCA to obtain a final concentration of 3% (v/v). The samples were incubated in ice for 10 min and centrifuged for 10 min (12,000 rpm, Microfuge 16, Beckman Coulter, Brea, CA, USA). Supernatants were analyzed by RP-HPLC on column using a linear gradient of acetonitrile (5–100% over 15 min) with detection at 223 nm. Peptides were quantified by their peak areas relative to the initial peak areas (0 min). All stability tests were performed at least in triplicates. As control samples peptides dissolved only in water under the same conditions were used. To additionally assess the changes in the incubated samples (peptide degradation) mass spectrometry analysis was used. LC-MS experiments were performed using ESI-IT-TOF (Shimadzu, Kyoto, Japan).
* Blood was collected from healthy anonymous donors and EDTA was then used as an anticoagulant. The procedure was approved by the Independent Bioethics Commission for Research of the Medical University of Gdańsk (NKBBN/387/2014).

[5] = tested on: 46BR.1N fibroblasts; assay: Collagen synthesis analysis (Direct red 80); type: cell-based, human; details: 25.0 µg/mL; 6 days; Direct red 80, 550 nm, percentage of control
Protocol: 46BR.1N fibroblasts were seeded into 96-well plates, at a density of 3000 cells per well, in DMEM medium supplemented with 10% FBS. After 24 h, when the cells had attached to the plate, the medium was exchanged for a fresh one, and the cells were stimulated with appropriate concentrations of the tested peptides. Half of the medium was exchanged every two days, with additional stimulation during every medium exchange, and the cells were cultured in the presence of the peptides for six days. The medium was then removed and the cells were washed with PBS, fixed for 1 h in Bouin’s fluid (15 mL of saturated picric acid, 5 mL of 37% formaldehyde and 1 mL of acetic acid), washed in running tap water for 15 min and air dried. The cells were stained for 1 h with Direct red 80 (Sigma Aldrich, St. Louis, MO, USA) dissolved in saturated aqueous picric acid solution at a concentration of 1 mg/mL, while gently shaking the plate on a microplate shaker. The dye was removed and the cells were washed with a 0.01 M hydrochloric acid solution to remove unbound dye. The cells were photographed with a light microscope. The dye was then dissolved in 0.1 M sodium hydroxide for 30 min by shaking the plate on a microplate shaker at room temperature. The solution was transferred to a new plate and a spectrophotometric analysis was performed at 550 nm, using 0.1 N sodium hydroxide as a blank. […]

secondary structure by CD [2]	Degradation Yes/No by human neutrophil elastase [3]	metabolised at 24 h, 1 mg/mL [4]	SMILES	time course of ThT fluorescence increase (fibrillization) [1]	increase in collagen synthesis [5]
disordered structure	Yes	20%	CC[C@H](C)[C@H](NC(=O)CNC(=O)[C@H](C)NC(=O)[C@H](CCC(N)=O)NC(=O)CNC(=O)CNC(=O)CNC(=O)[C@@H](NC(=O)[C@@H]1CCCN1C(=O)[C@H](C)NC(=O)[C@H](C)NC(=O)CNC(=O)CNC(=O)CNC(=O)[C@H](CCCCN)NC(=O)[C@H](Cc1c[nH]cn1)NC(=O)CNC(C)=O)C(C)C)C(=O)N[C@H](C(=O)N[C@H](C(N)=O)C(C)C)C(C)C [FC-GHK] (Ac-GHKGGGAAPVGGGQAGIVV-NH2)	effective sample fibrilization during the first two days of incubation	30%
disordered structure	Yes	20%	CC[C@H](C)[C@H](NC(=O)CNC(=O)[C@H](C)NC(=O)[C@H](CCC(N)=O)NC(=O)CNC(=O)CNC(=O)CNC(=O)[C@@H](NC(=O)[C@@H]1CCCN1C(=O)[C@H](C)NC(=O)[C@H](C)NC(=O)CNC(=O)CNC(=O)CNC(=O)[C@H](CCCCN)NC(=O)[C@H](Cc1c[nH]cn1)NC(=O)CNC(=O)[C@H](CCCCN)NC(C)=O)C(C)C)C(=O)N[C@H](C(=O)N[C@H](C(N)=O)C(C)C)C(C)C [FC-KGHK] (Ac-KGHKGGGAAPVGGGQAGIVV-NH2)	required at least three days of incubation	40%
